SMILES strings stand for the structures. pIC50: −log10 of the molar value. Like-named read-outs stand apart in the source and are kept apart here.

We go through ten molecules from patent publication EP4671239A1, “ARYL SUBSTITUENT-CONTAINING DEGRADATION AGENT FOR CDK12/13, PREPARATION METHOD THEREFOR, AND PHARMACEUTICAL COMPOSITION AND USE THEREOF” (Shanghai Institute of Organic Chemistry, Chinese Academy of …, priority 2023, dated 2024).

For data set [1], the system named is CDK12 and CDK13 proteins. As to the kind of experiment: Degradation activity on CDK12/13 in 22RV1 cells (Western Blot). The class given is cell-based. The note with it: for induction of degradation of CDK12 and CDK13 proteins: cell line and concentration not given there; for degradation of CDK12 and CDK13 proteins / degradation of CDK12 and CDK13 protein levels in cells / dose dependence of degradation of CDK12 and CDK13 proteins: 22RV1 cells; for degradation of CDK12 and CDK13 proteins: 100 nM, 6 h (FIG. 5); for degradation of CDK12 and CDK13 protein levels in cells: 500 nM, 6 hours, WB (FIG. 4); for dose dependence of degradation of CDK12 and CDK13 proteins: different concentrations, 6 h (FIG. 4B, FIG. 5). As to the method: Experimental methods: The cell line, 22RV1 cell line was purchased from the American Type Culture Collection (ATCC). Conventional Western Blot was used for detection as follows: 22RV1 cells were seeded in a certain number in a 12-well plate, and cultured overnight in an incubator in an adherent manner. […] The cells were lysed with a lysis buffer, and samples were collected. Then, an appropriate amount of the samples was taken for SDS-PAGE electrophoresis. After electrophoresis, the proteins were transferred to nitrocellulose membranes using a semi-dry electro-transfer system. The nitrocellulose membrane was placed in a blocking solution (5% skim milk powder diluted in TBS containing 0.1% Tween 20) and blocked at room temperature for 2 h. The membranes were then placed in a primary antibody solution (1: 1000 diluted in TBS containing 0.1% Tween 20), respectively, and incubated at 4°C overnight. The cells were washed three times with TBS containing 0.1% Tween 20, each time for 15 min. The membrane was placed in a secondary antibody solution (horseradish peroxidase-labeled goat anti-rabbit IgG, diluted at 1:1000 in TBS containing 0.1% Tween 20) and reacted at room temperature for 1 h. After washing the membrane three times as above, the membrane was developed with ECL plus reagent and photographed using Amersham Imager 600 system.
(A western blot detects proteins with antibodies after separation by electrophoresis.)

Data set [2] has as its system prostate cancer VCap cells. As to the kind of experiment: Proliferation-inhibiting activity on VCap cells (CellTiter-Glo). Particulars: Homo sapiens; VCap cell line, CellTiter-Glo (FIG. 6). The class given is cell-based. As to the method: The cell proliferation-inhibiting activity of the compounds was determined using the CellTiter-Glo Luminescent Cell Viability Assay (Promega, Madison, WI). The cells were seeded in a 96-well plate in their respective culture media and incubated at 37°C in a 5% CO2 incubator. After overnight incubation, serial dilutions of the compounds were prepared and added to the 96-well plate. A volume of CellTiter-Glo reagent equal to the volume of the cell culture medium present in each well was added (e.g., 100 microliters of the reagent was added to 100 microliters of the culture medium for the cells in the 96-well plate). The contents were mixed on an orbital shaker for 2 min to induce cell lysis. The 96-well plate was incubated at room temperature for 10 minutes to stabilize a luminescent signal. Luminescence was recorded: the luminescence signal of each well was acquired using an Infinite M1000 Pro plate reader (Tecan, Zürich, Switzerland), and the data were analyzed using GraphPad Prism software (GraphPad Software Inc, La Jolla, CA).
(In ATP-based viability assays light output follows the ATP content of the culture.)

A short description of data set [3]: Pharmacokinetics and bioavailability test in rats (Example 60). The class given is in vivo. The note with it: SD rats; for F: bioavailability calculated from AUC; for oral pharmacokinetic properties: summary in words of Tables 2-6; for Cmax / Tmax / clearance / half-life: Sprague-Dawley, rat, plasma. As to the method:
(§1) Pharmacokinetics and bioavailability tests in rats. SD rats were given a single oral (10 mg/kg), intravenous (2.5 mg/kg) and intraperitoneal (10 mg/kg) dose, followed by animal blood sample collection at appropriate time points. Heparin was added for anticoagulation, and the samples were centrifuged at 8000 rpm for 6 min. The supernatant was collected and stored at -20°C for HPLC-MS analysis. The blood samples underwent protein precipitation with acetonitrile at 12 000 rpm * 10 min, and the supernatant was used for HPCL-MS analysis. The data underwent parameter fitting with DAS2.0, to obtain compartmental model and non-compartmental model parameters, respectively. The oral bioavailability of the compounds was calculated based on the area under the plasma concentration-time curve (AUC) data. […] Table 2. Pharmacokinetic experimental results of compounds YJZ9069 and YJZ1102

Data set [4] concerns CDK12 and CDK13 proteins. As to the kind of experiment: Degradation activity on CDK12/13 in MDA-MB-231 cells (Western Blot). The class given is cell-based. Particulars: 0.1µM or 0.3µM, 15 h, WB (FIG. 1). As to the method:
Experimental methods: The cell line MDA-MB-231 was purchased from the American Type Culture Collection (ATCC). Conventional Western Blot was used for detection, as follows: MDA-MB-231 cells were seeded at a density of 2 x 10^5/mL in a 12-well plate, with 1 mL per well, and cultured overnight in an incubator in an adherent manner. Then, a certain concentration of compounds was added to act for 15 h. The cells were lysed with a lysis buffer, and protein samples were collected. An appropriate amount of the sample was taken for SDS-PAGE electrophoresis. After electrophoresis, the protein was transferred to a polyvinylidene fluoride (PVDF) membrane using a wet electro-transfer system. The PVDF membrane after electro-transfer was cut into several required strips, which were then placed in a blocking solution (5% skim milk powder diluted in TBS containing 0.1% Tween 20) and blocked at room temperature for 1.5 h. A primary antibody solution was prepared by diluting a primary antibody against the corresponding target protein in TBS containing 0.1% Tween 20 according to the dilution requirements of different antibodies, such as 1:1000 (CST), 1:3000 (Proteintech, Bethyl), and 1:200 (Santacruz). The blocked membrane was placed in the corresponding primary antibody solution and incubated at 4°C for 12-14 h. Then, the cells were washed three times with TBS containing 0.1% Tween 20, each time for 5 min. After washing, the membrane was placed in a secondary antibody solution (horseradish peroxidase-labeled goat anti-rabbit IgG, diluted at 1:2000 in TBS containing 0.1% Tween 20) and reacted at room temperature for 2 h. After washing the membrane three times as above, the membrane was developed with StarSignal plus reagent (GenStar®) and Omni-ECL reagent (Yazyme®), and photographed with Amersham Imager 800 system.

The nature of data set [5]: Pharmacokinetics and bioavailability test in rats (Example 57). The class given is in vivo. Particulars: SD rats; for MRT last: read-out: MRT(0-t); for MRT inf: read-out: MRT(0-∞). How it is done:
as §1, with “Table 1.” for “Table 2.”, “of compound zlc-4-93” for “of compounds YJZ9069 and YJZ1102”

Where [6] appears, read: Sprague-Dawley, rat, plasma, iv, i.v. 2.5 mg/kg.
Where [7] appears, read: Sprague-Dawley, rat, plasma, Oral 10 mg/kg.

Take `CN1C(=O)CCC(N2C(=O)c3cccc(OCC(=O)N4CCN(c5ccc(N(C(=O)NCc6ccccc6)[C@H]6CC[C@H](Nc7ncc8ccccc8n7)CC6)cc5)CC4)c3C2=O)C1=O` (stereo partly drawn) [YJZ1078]: the “induction of degradation of CDK12 and CDK13 proteins” value with CDK12 and CDK13 proteins [1] is recorded as “cannot effectively induce degradation”. Moreover, the pIC50 in data set [2] was less than 5.30.
Regarding `O=C1CCC(N2C(=O)c3ccc(N4CCC(CN5CCN(c6ccc(N(C(=O)NCc7ccccc7)[C@H]7CC[C@H](Nc8ncc9ccccc9n8)CC7)cc6)CC5)CC4)cc3C2=O)C(=O)N1` (stereo partly drawn) [YJZ1097, 3-benzyl-1-(4-(4-((1-(2-(2,6-dioxopiperidin-3-yl)-1,3-dioxoisoindole-5-yl)piperidin-4-yl)methyl)piperazin-1-yl)phenyl)-1-((1r,4r)-4-(quinazolin-2-ylamino)cyclohexyl)urea], in the data set with CDK12 and CDK13 proteins [1], the “degradation of CDK12 and CDK13 proteins” value was “almost completely degrade”; the “degradation of CDK12 and CDK13 protein levels in cells” value (shortened to “degradation … in cells”) is on record as “effectively degrade”; the “dose dependence of degradation of CDK12 and CDK13 proteins” value is on record as “dose-dependent manner”. For the same molecule, in data set [3] (PO 10 mg/kg), the F is 23.89%, the Cmax was 593 ng/mL, the Tmax came out at 6.7 h and the half-life is 15.2 h. Also, the oral pharmacokinetic properties result in data set [3] is on record as “excellent”. In addition, in data set [3] (IV 2.5 mg/kg), the Cmax was determined as 2490 ng/mL, the Tmax turned out to be 0.08 h, the clearance is 3.12 mL/min/kg and the half-life is 13.8 h. Besides, the pIC50 in data set [2] is 8.41.
With `O=C1CCC(N2C(=O)c3cc(F)c(N4CCC(N5CCN(c6ccc(N(C(=O)NCc7ccccc7)[C@H]7CC[C@H](Nc8ncc9ccccc9n8)CC7)cn6)CC5)CC4)cc3C2=O)C(=O)N1` (stereo partly drawn) [YJZ1206], in the data set on CDK12 and CDK13 proteins [1], the “degradation of CDK12 and CDK13 proteins” value was “almost completely degrade”; the “degradation … in cells” value is listed as “effectively degrade”; the “dose dependence of degradation of CDK12 and CDK13 proteins” value is recorded as “dose-dependent manner”. In data set [3] (PO 10 mg/kg), the F is listed as 39.16%, the Cmax stood at 1130 ng/mL, the Tmax was 6 h and the half-life was 6.24 h. In data set [3], the oral pharmacokinetic properties entry is on record as “excellent”. In data set [3] (IV 2.5 mg/kg), the concentration peaked (Cmax) at 3120 ng/mL, the Tmax amounted to 0.08 h, the clearance is 4.29 mL/min/kg and the half-life was 5.15 h.
Consider `O=C1CCC(N2C(=O)c3cccc(NCCCCCCCCCC(=O)N4CCN(c5cccc(N(C(=O)NCc6ccccc6)[C@H]6CC[C@H](Nc7ncc8ccccc8n7)CC6)c5)CC4)c3C2=O)C(=O)N1` (stereo partly drawn) [YJZ9055], for which the “induction of degradation of CDK12 and CDK13 proteins” value in the data set on CDK12 and CDK13 proteins [1] is “cannot effectively induce degradation”. Also, the pIC50 in data set [2] is 5.66.
As for `N#Cc1ccc(N[C@H]2CC[C@H](N(C(=O)NCc3ccccc3)c3ccc(N4CCN(C[C@@H]5CCN(c6ccc7c(c6)C(=O)N(C6CCC(=O)NC6=O)C7=O)C5)CC4)cc3)CC2)nc1` (stereo partly drawn) [ZLC5-106], the “degradation … in cells” value with CDK12 and CDK13 proteins [4] was “effectively degrade”.
Take `N#Cc1ccc(N[C@H]2CC[C@H](N(C(=O)NCc3ccccc3)c3ccc(N4CCC(CN5CC6(C5)CN(c5ccc7c(c5)C(=O)N(C5CCC(=O)NC5=O)C7=O)C6)CC4)cc3)CC2)nc1` (stereo partly drawn) [ZLC6-37]: in the data set on CDK12 and CDK13 proteins [4], the “degradation … in cells” value was “effectively degrade”.
With `N#Cc1ccc(N[C@H]2CC[C@H](N(C(=O)NCc3ccccc3)c3ccc(N4CCC(CN5CCN(c6ccc7c(c6)C(=O)N(C6CCC(=O)NC6=O)C7=O)CC5)CC4)cc3)CC2)nc1` (stereo partly drawn) [ZLC6-42], the “degradation … in cells” value in the data set with CDK12 and CDK13 proteins [4] is on record as “effectively degrade”.
On to `N#Cc1ccc(N[C@H]2CC[C@H](N(C(=O)NCc3ccccc3)c3ccc(N4CCC5(CC4)CN(c4ccc6c(c4)C(=O)N(C4CCC(=O)NC4=O)C6=O)C5)cc3)CC2)nc1` (stereo partly drawn) [ZLC6-103], for which, in the data set on CDK12 and CDK13 proteins [4], the “degradation … in cells” value is reported as “effectively degrade”.
As for `N#Cc1ccc(N[C@H]2CC[C@H](N(C(=O)NCc3ccccc3)c3ccc(N4CCN(CC5CN(c6cc7c(cc6F)C(=O)N(C6CCC(=O)NC6=O)C7=O)C5)CC4)cc3)CC2)nc1` (stereo partly drawn) [ZLC7-36], the “degradation … in cells” value with CDK12 and CDK13 proteins [4] is on record as “effectively degrade”.
For the molecule `N#Cc1ccc(N[C@H]2CC[C@H](N(C(=O)NCc3ccccc3)c3ccc(N4CCN(C5CCN(c6ccc7c(c6)C(=O)N(C6CCC(=O)NC6=O)C7=O)CC5)CC4)cc3)CC2)nc1` (stereo partly drawn) [zlc-4-93], in data set [5] (Oral 10 mg/kg, bioavailability calculated from AUC), the F was 16.46%. Besides, the oral pharmacokinetic properties entry in data set [5] (summary in words of Table 1) is recorded as “excellent”. Also, in data set [5] (setting [6]), the AUC(0-inf) came to 4740 ng·h/mL, the AUC(0-t) worked out at 4720 ng·h/mL, the highest level (Cmax) was 2590 ng/mL and the Tmax is 0.08 h. Besides, in data set [5] (setting [6]), the clearance was 9.85 mL/min/kg, the half-life was 2.38 h, the MRT last came to 2.37 h and the MRT inf was 2.44 h. Further, in data set [5] (setting [7]), the AUC(0-inf) stood at 3130 ng·h/mL, the AUC(0-t) worked out at 3110 ng·h/mL, the highest level (Cmax) was 308 ng/mL and the Tmax came out at 4 h. In addition, in data set [5] (setting [7]), the half-life is 3.04 h, the MRT last came out at 6.06 h and the MRT inf stood at 6.19 h.

Broadly, the pIC50 is the negative decadic logarithm of the IC50, by convention in mol/L. A word on the Cmax: it is the peak of the concentration-time curve. By Tmax is commonly meant the time from dosing to the highest level. One may read the clearance as the volume of plasma or blood freed of the substance per unit of time. A high value points to a high capacity for elimination. The term half-life denotes how long it takes for the measured level to halve. Read a low half-life as fast loss. Usually AUC(0-inf) stands for the area under the concentration-time curve extrapolated to infinity. Low values mean less exposure, high ones more exposure. By AUC(0-t) is commonly meant exposure summed from dosing to a finite time, without extrapolation to infinity. A higher AUC(0-t) goes with more exposure.
